From patent EP1105728B1, “MODULATING MULTIPLE LINEAGE KINASE PROTEINS” (CEPHALON, INC., priority 1998, dated 2000)
Read-outs that look alike come from different tables or passages of the source. Starred links: 1 amine or outer side, 2 acyl side, 3 side chain; linkers in the order of their positions; H or OH if unused. Positions of bridges follow the written chain, without caps; N, C: chain ends. Non-standard residues stand in square brackets, D forms with d. Residues, ends and D or L forms follow the SMILES beside them. Chains are numbered I, II in the order given. Actinocin(9to1) = Cc1c2oc3c(C)ccc(C(=O)[*:1])c3nc-2c(C(=O)[*:2])c(N)c1=O; NMeV = CN[C@H](C(=O)O)C(C)C; Sar = CNCC(=O)O

How the values were obtained:
TNF-α = assay: Induction of TNF-α by LPS in THP-1 cells (ELISA); format: cell-based; conditions: for IC50: Homo sapiens, THP-1, LPS 2 µg/ml, serum-free medium, read-out: THP-1 Cells TNF-α IC50; for TNF-α in the medium: inhibitor 30 min prior to LPS, medium collected 3 hr after LPS
Description: THP-1 cells were grown in RPMI 1640 medium supplemented with 10% fetal bovine serum. LPS (E.coli serotype 0111.B4, TCA extracted) was purchased from Sigma and dissolved in PBS. ELISA kits for assaying IL-1 and TNF-α were purchased from Boerhinger-Mannheim and assays on THP-1 culture medium were performed as directed by the manufacturer. Standard curves according to directions were obtained with each assay.
Experiments were performed in 12 well culture plates with either 1 or 2 ml of THP-1 cells at 4 X 10^5 cells/ml. IL-1 and TNF-α were induced by the addition of LPS to the culture medium and the medium collected at various times thereafter for cytokine assay. Cells were removed by centrifugation and the supernatants frozen at -70°C until assay. To minimize costs experiments were performed in duplicate cultures and the duplicate supernatants were pooled after centrifugation. Each pooled supernatant was assayed in duplicate. Stock solutions of indolo- and fused pyrrolocarbazoles in 100% DMSO were diluted to the desired concentrations in either medium containing 10% fetal bovine serum or in medium containing 0.5 mg/ml BSA. Unless otherwise stated, compounds were added to the THP-1 cells 1 hr prior to the addition of LPS.

JNK = JNK activity immunoprecipitated from THP-1 cells; format: cell-based; conditions: Homo sapiens, read-out: THP-1 Cells JNK % inh. 500 nM
Description: Assays for JNK activity were performed after immunoprecipitating the JNK protein from an extract of lysed THP-1 cells. Pelleted THP-1 cells were lysed on ice for 15 min in 500 µl of Frac buffer (10 mM Tris-Hcl, pH 7.5,50 mM NaCl, 30 µM sodium pyrophosphate, 1 mg/ml BSA, 1% Triton-X-100). The extract was centrifuged for 10 min at 14K and 5 µl of JNK antibody (Santa Cruz) was added to the supernatant. The extract was rotated for 60 min at 4°C, 75 µl of washed protein A Sepharose (20% w/v in Frac) added and the extract rotated another 30 min to bind the antibody complex to the protein A Sepharose. The protein A Sepharose was washed twice with Frac buffer, once with 20 mM Hepes, pH 7.6, 20 mM MgCl2, 2 mM DTT, then incubated for 15 min at 30° C in 30 µl of kinase buffer (20 mM hepes, 20 mM MgCl2, 2 MM DTT, 1 µg recombinant c-jun, and 2 µM ATP-γ-^32P, 2 µCi. The reaction was terminated by the addition of 10 µl of 4X SDS gel loading buffer, heated for 3 min at 80° C, and the proteins were analyzed on a 10% SDS gel. The gel was dried, exposed to a Phosphorimager plate, and the radioactive bands were analyzed on a Phosphorimager.

MLK-3 = target: T1, MLK-3 (Homo sapiens, UniProt Q16584); assay: JNK activity (immunoprecipitation/kinase assay) in Cos7 cells overexpressing MLK-3 and HA-JNK1; format: cell-based
T1 construct: A full length cDNA of human MLK-3, MLK-2, or mouse DLK; expressed in transfected cells; host or cells: Cos7
Description: Cos7 cells were plated at 80% confluency and transfected with 2 ug each of cDNA constructs using lipofectamine as recommended by the provider (Gibco BRL, Gaithersburg, MD). A full length cDNA of human MLK-3, MLK-2, or mouse DLK or a partial human MLK-1 as described above, and a full length Hemagluttinin A-tagged human JNK1, kindly provided by J. Silvio Gutkind (NIH, Bethesda, MD), were subcloned into the pcDNA3 vector (Invitrogen, San Diego, CA). […] JNK activity from the lysate was assayed by an immunoprecipitation/kinase assay as described below.
Lysate from Cos 7 cells was measured for protein concentration using the Micro BCA kit from Pierce (Rockford, IL) and equal amounts of protein were immunoprecipitated with the HA antibody for 1 hr at 4°C. Immunoprecipitates were pelleted by centrifugation in a microfuge centrifuge for 20 sec, resuspended in Triton buffer, washed by centrifugation 2 more times, followed by a final wash in Kinase buffer (20 mM Hepes pH 7.4,20 mM MgCl2, 2 mM dithiothreitol, 0.1 mM sodium vanadate). The immunoprecipitate was resuspended in kinase buffer containing 1 µM ATP and 5 µCi [γ-^32P]ATP and substrate (1 µg/sample of AP-1 ) and incubated for 15 min at 30°C. […] Samples were heated to 80°C for 5 min and loaded onto 10% SDS-polyacrylamide gels. Proteins were separated by electrophoresis. The gel was dried and quantitation of radioactivity in the AP-1 substrate was performed on a Molecular Dynamics Phosphorimager (Sunnyvale, Ca.).
To determine whether inhibition of the JNK pathway regulated by these kinases correlated with neurotrophic compounds, we evaluated the effect of compounds on JNK activity in Cos7 cells overexpressing HA-JNK and MLK3. After a 48 hr transfection period, the cells were incubated with compounds at 500 nM for 2hr followed by cellular lysis. Lysate was immunoprecipitated and kinase activity measured as previously described. […]

DLK = target: T2, DLK (Mus musculus, UniProt Q60700); assay: JNK activity (immunoprecipitation/kinase assay) in Cos7 cells overexpressing DLK and HA-JNK1; format: cell-based; conditions: COS-7, 500 nM for 2 hr; replicate values in one cell; read-out: Cos-7 Cells DLK % JNK Inhib. @ 500nM
T2 construct: A full length cDNA of human MLK-3, MLK-2, or mouse DLK; expressed in transfected cells; host or cells: Cos7
T2 sequence (Q60700 1-888): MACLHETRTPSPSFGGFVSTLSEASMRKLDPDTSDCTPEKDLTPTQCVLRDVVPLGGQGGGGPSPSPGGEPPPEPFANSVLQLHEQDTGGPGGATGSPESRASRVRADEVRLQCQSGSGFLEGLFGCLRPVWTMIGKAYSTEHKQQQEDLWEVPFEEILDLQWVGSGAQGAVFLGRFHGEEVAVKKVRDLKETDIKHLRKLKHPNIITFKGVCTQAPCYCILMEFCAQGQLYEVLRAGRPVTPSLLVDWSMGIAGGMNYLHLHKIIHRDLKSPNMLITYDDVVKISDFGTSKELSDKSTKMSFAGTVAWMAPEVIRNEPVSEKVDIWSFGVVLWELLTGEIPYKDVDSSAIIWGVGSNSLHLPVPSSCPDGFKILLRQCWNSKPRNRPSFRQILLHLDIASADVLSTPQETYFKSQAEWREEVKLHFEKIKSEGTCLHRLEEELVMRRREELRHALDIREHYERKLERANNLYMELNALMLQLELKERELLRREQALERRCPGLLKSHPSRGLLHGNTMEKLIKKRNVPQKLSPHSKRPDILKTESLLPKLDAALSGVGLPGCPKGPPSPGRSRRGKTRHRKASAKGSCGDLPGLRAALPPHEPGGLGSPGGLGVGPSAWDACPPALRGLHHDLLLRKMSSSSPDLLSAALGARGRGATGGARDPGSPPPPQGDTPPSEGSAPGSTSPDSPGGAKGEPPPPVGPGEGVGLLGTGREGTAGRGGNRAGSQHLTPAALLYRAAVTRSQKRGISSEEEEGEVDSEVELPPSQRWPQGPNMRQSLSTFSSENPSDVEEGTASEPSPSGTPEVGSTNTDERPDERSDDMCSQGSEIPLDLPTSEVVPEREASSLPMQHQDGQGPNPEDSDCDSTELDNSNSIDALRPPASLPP
Description: Cos7 cells were plated at 80% confluency and transfected with 2 ug each of cDNA constructs using lipofectamine as recommended by the provider (Gibco BRL, Gaithersburg, MD). A full length cDNA of human MLK-3, MLK-2, or mouse DLK or a partial human MLK-1 as described above, and a full length Hemagluttinin A-tagged human JNK1, kindly provided by J. Silvio Gutkind (NIH, Bethesda, MD), were subcloned into the pcDNA3 vector (Invitrogen, San Diego, CA). After a 48 hr transfection, the cells were treated with 0.025% DMSO or 500 nM of the indicated compounds for 2 hr followed by lysis in 0.4 ml Triton buffer (1% Triton X-100, 50 mM sodium chloride, 10 mM Tris (pH 7.6), 0.1 % bovine serum albumin, 30 uM sodium pyrophosphate, 50 mM sodium fluoride, 20 ug/ml aprotinin, 1 mM phenylmethylsulfonylfluoride, 1 mM sodium vanadate). JNK activity from the lysate was assayed by an immunoprecipitation/kinase assay as described below.
Lysate from Cos 7 cells was measured for protein concentration using the Micro BCA kit from Pierce (Rockford, IL) and equal amounts of protein were immunoprecipitated with the HA antibody for 1 hr at 4°C. […] The gel was dried and quantitation of radioactivity in the AP-1 substrate was performed on a Molecular Dynamics Phosphorimager (Sunnyvale, Ca.). […]

MKK4 = assay: MPTP model: phosphorylated MKK4 in the substantia nigra (immunoblot, ELISA); format: in vivo, mice; conditions: pretreatment; Compound III-3 1 mg/kg (Fig. 22c)
Description: MPTP was administered at a dose (40 mg/kg) that produces loss of striatal dopaminergic terminals and cell bodies in the substantia nigra. Tyrosine hydroxylase was used as a marker for dopamenergic nerve terminals in the substantia nigra. […] Since Compound III-3 is a known inhibitor of MLK3, activation of a downstream substrate of MLK3 was measured in MPTP- treated mice. Levels of phosphorylated MKK4 were measured using a phospho-MKK4 specific antibody (New England Biolabs, Beverly, MA) that recognizes the monophosphorylated form of MKK4 by either immunoblot (Fig. 22b) or ELISA (Fig. 22c). MPTP administration elevated levels of phosphorylated MKK4 in the substantia nigra by up to 5 fold over control levels (Fig. 22b). Peak elevations occurred 4 hrs after administration ofMPTP and coincided with peak CNS levels of MPP^+.

[1] = COS-7, 500 nM for 2hr, control is JNK activity in the presence of DMSO, read-out: % Inhibition of JNK Activity (average) MLK3 in Cos7 cells
[2] = COS-7, read-out: Overexpressed MLK3 in Cos 7 Cells JNK % inh. 500 nM

T1 sequence (Q16584 whole entry): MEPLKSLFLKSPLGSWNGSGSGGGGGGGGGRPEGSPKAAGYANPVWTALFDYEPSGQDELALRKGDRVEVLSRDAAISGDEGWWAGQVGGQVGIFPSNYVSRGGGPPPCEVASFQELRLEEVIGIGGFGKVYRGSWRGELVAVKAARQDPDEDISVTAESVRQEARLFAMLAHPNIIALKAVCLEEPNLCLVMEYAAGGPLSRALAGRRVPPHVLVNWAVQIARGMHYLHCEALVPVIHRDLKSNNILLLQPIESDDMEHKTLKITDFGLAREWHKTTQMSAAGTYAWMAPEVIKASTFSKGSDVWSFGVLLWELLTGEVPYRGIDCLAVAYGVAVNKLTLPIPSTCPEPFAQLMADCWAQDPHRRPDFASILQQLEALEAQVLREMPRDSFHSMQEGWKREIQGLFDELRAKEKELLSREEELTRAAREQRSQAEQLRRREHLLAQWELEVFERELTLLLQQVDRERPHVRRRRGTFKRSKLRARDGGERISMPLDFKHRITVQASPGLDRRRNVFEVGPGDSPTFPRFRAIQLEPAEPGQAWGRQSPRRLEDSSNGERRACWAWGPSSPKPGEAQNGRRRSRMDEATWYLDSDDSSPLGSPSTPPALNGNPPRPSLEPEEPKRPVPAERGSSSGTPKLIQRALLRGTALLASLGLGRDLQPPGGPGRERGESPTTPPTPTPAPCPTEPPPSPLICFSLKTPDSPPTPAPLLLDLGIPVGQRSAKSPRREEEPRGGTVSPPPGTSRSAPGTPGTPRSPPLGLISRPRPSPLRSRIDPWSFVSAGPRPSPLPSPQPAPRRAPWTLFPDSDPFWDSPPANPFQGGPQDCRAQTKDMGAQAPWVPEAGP

Compound | IC50 (TNF-α) | inhibition at 0.5 µM (JNK) | inhibition at 0.5 µM (MLK-3; [1]) | inhibition at 0.5 µM (MLK-3; [2]) | also measured
COC(=O)C1(O)CC2OC1(C)n1c3ccc(CCSC)cc3c3c4c(c5c6cc(CCSC)ccc6n2c5c31)C(=O)NC4 (centres unmarked) [III-10] | 4300 nM | 48% | 78% | 78% | 
CCNC(=O)Nc1ccc2c(c1)c1c3c(c4c5cc(CCc6ccccn6)ccc5n5c4c1n2C1CC(O)(C(=O)OC)C5(C)O1)CNC3=O (centres unmarked) [III-1] | 49.5 nM | 93.5% | 84% | 83.8% | 
CCCCCOC(=O)C1(O)CC2OC1(C)n1c3ccccc3c3c4c(c5c6ccccc6n2c5c31)C(=O)NC4 (centres unmarked) [III-4] | 462 nM | 81% | 66% | 66% | 
COC(=O)C1(O)CC2OC1(C)n1c3ccccc3c3c4c(c5c6ccccc6n2c5c31)C(=O)NC4 (centres unmarked) [III-9] |  |  | 98.5% |  | 
Cc1c2oc3c(C)ccc(C(=O)N[C@@H]4C(=O)N[C@H](C(C)C)C(=O)N5CCC[C@H]5C(=O)N(C)CC(=O)N(C)[C@@H](C(C)C)C(=O)O[C@@H]4C)c3nc-2c(C(=O)N[C@@H]2C(=O)N[C@H](C(C)C)C(=O)N3CCC[C@H]3C(=O)N(C)CC(=O)N(C)[C@@H](C(C)C)C(=O)O[C@@H]2C)c(N)c1=O [Actinomycin D, reference compound] (I: T[dV]P[Sar][NMeV] / II: T[dV]P[Sar][NMeV]; ester I:1-I:C, II:1-II:C; linker I:N-II:N via Actinocin(9to1)) |  |  |  |  | TNF-α in the medium (TNF-α): no TNF-α was found
C[C@@H]1C[C@@H]([C@H](O)CC2CC(=O)NC(=O)C2)C(=O)[C@@H](C)C1 [cycloheximide, reference compound] |  |  |  |  | TNF-α in the medium (TNF-α): no TNF-α was found
COC(=O)C1(O)CC2OC1(C)n1c3ccccc3c3c4c(c5c6ccccc6n2c5c31)C(=O)NC4 (centres unmarked) [III^1] |  |  |  |  | inhibition at 0.5 µM (DLK): 63%; inhibition at 0.5 µM (MLK-3; COS-7, 500 nM for 2 hr, replicate values in one cell, read-out: Cos-7 Cells MLK-3 % JNK Inhib. @ 500nM): 99%
COC(=O)C1(OC)CC2OC1(C)n1c3ccccc3c3c4c(c5c6ccccc6n2c5c31)C(=O)NC4 (centres unmarked) [III-11] | 686 nM | 51% | 92.5% |  | inhibition at 0.5 µM (MLK-3; COS-7, 500 nM, read-out: Overexpressed MLK3 in Cos 7 Cells JNK % inh. 500 nM): 92.5%
CCOCOCc1ccc2c(c1)c1c3c(c4c5cc(COCOCC)ccc5n5c4c1n2C1CC(O)(C(=O)OC)C5(C)O1)CNC3=O (centres unmarked) [III-2] |  |  | 96% |  | 
C#CCN(C)[C@H](C)Cc1ccccc1 [Compound 1-deprenyl, 1-deprenyl, reference compound] |  |  |  |  | MPTP-mediated MKK4 phosphorylation (MKK4): attenuated
